# Experimental data taken from patent publication US7160898B2, “Pharmacological treatment for sleep apnea” (Board of Trustees of The University of Illinois, priority 2002, dated 2007).
# How the values were obtained:
# sleep apnea syndrome = conditions: cited from earlier work; for effect in patients with sleep apnea: literature reports
# [1] = system: animal model of sleep apnea; conditions: U.S. Pat. No. 5,075,290; cited from earlier work
# [2] = system: 5-hydroxytryptamine receptors; conditions: anesthetized animals, cited from earlier work; for apnea after intravenous administration: duration increased dose-dependently
# RR, VE, mean BP, HP = experiment: Respiratory pattern, BP and HP after serotonin and GR38032F (Example 3); type: in vivo, rat (Sprague-Dawley)
# Protocol: Similar software (Experimenters' Workbench; Datawave Technologies, Longmont, Colo.) was employed to analyze the blood pressure waveform; for each beat of each recording, systolic (SBP) and diastolic (DBP) blood pressures and pulse interval were measured. The pulse interval provided a beat by beat estimate of HP. Mean BP (MBP) was estimated according to the weighted average of SBP and DBP for each beat: MBP=DBP+(SBP−DBP)/3. The parameters for each beat were also classified according to the sleep/wake state and recording hour during which they occurred.
# (§1) Each animal was recorded on four occasions, with recordings for an individual animal separated by at least three days. Fifteen minutes prior to each recording, each animal received (via intraperitoneal injection), in random order, one of the following: (a) saline solution (control); (b) 0.79 mg/kg serotonin; (c) 0.1 mg/kg GR38032F plus 0.79 mg/kg serotonin; or (d) 0.1 mg/kg GR38032F. For the GR38032F+serotonin test group, 0.1 mg/kg GR38032F was administered at time 09:30 followed by 0.79 mg/kg serotonin at time 09:45. Polygraphic recordings were made from 10:00–16:00.
# (§2) Respiration BP, EEG, and EMG data were determined and recorded via the experimental procedure as specifically set forth above in Example 2. As in Example 2, sleep apneas, defined as cessation of respiratory effort for at least 2.5 s, were scored for each recording session and were associated with the stage in which they occurred: NREM or REM sleep. The duration requirement of 2.5 s represents at least two “missed” breaths, which is analogous to a 10-s apnea duration requirement in humans.
# The effects of sleep stage (NREM vs REM) and injection (control vs. administration of either serotonin alone, GR38032F+serotonin, or GR38032F alone) on apnea indexes, respiratory pattern, BP, and HP were tested using analysis of variance (ANOVA) with repeated measures. Multiple comparisons were controlled using Fisher's protected least-significance difference (PLSD). One-way ANOVA was also performed by nonparametric (Kruskal-Wallis) analysis. […]
# [3] = system: spontaneous sleep-related central apneas; experiment: Induction and suppression of sleep apneas by serotonin and GR38032F (Example 3); type: in vivo, rat (Sprague-Dawley); conditions: 6 hour recording
# Protocol: Ten adult male Sprague-Dawley rats (Sasco-King, Wilmington, Mass.; 300 g) were maintained on a 12-h light (08:00–20:00 hour)/12-hour dark (20:00–08:00) cycle for one week, housed in individual cages, and given ad libitum access to food and water. Following the one week of acclimatization, animals were prepared for physiological testing via the surgical procedures (i.e., implantation of cortical electrodes for EEG recording and neck muscle electrodes for EMG recording, implantation of a radiotelemetry transmitter for BP and HP monitoring) as set forth above in Example 1. After completion of the surgical procedures, animals were allowed a one week recovery period prior to use in the present study. Each animal was recorded on four occasions, with recordings for an individual animal separated by at least three days. Fifteen minutes prior to each recording, each animal received (via intraperitoneal injection), in random order, one of the following: (a) saline solution (control); (b) 0.79 mg/kg serotonin; (c) 0.1 mg/kg GR38032F plus 0.79 mg/kg serotonin; or (d) 0.1 mg/kg GR38032F. For the GR38032F+serotonin test group, 0.1 mg/kg GR38032F was administered at time 09:30 followed by 0.79 mg/kg serotonin at time 09:45. Polygraphic recordings were made from 10:00–16:00. Respiration BP, EEG, and EMG data were determined and recorded via the experimental procedure as specifically set forth above in Example 2. As in Example 2, sleep apneas, defined as cessation of respiratory effort for at least 2.5 s, were scored for each recording session and were associated with the stage in which they occurred: NREM or REM sleep. The duration requirement of 2.5 s represents at least two “missed” breaths, which is analogous to a 10-s apnea duration requirement in humans. The effects of sleep stage (NREM vs REM) and injection (control vs. administration of either serotonin alone, GR38032F+serotonin, or GR38032F alone) on apnea indexes, respiratory pattern, BP, and HP were tested using analysis of variance (ANOVA) with repeated measures. Multiple comparisons were controlled using Fisher's protected least-significance difference (PLSD). One-way ANOVA was also performed by nonparametric (Kruskal-Wallis) analysis. Conclusions using parametric and nonparametric ANOVA were identical in all cases.
# sleep/wake architecture = experiment: Sleep/wake architecture after 5-HT and GR38032F (Example 3); type: in vivo, rat (Sprague-Dawley); conditions: i.p.
# Protocol: Sleep and waking states were assessed using the biparietal EEG and nuchal EMG signals on 10-second epochs as described by Bennington et al. [Sleep, 17:28–36 (1994)]. This software discriminated wakefulness (W) as a high frequency low amplitude EEG with a concomitant high EMG tone, NREM sleep by increased spindle and […] activity together with decreased EMG tone, and REM sleep by a […] activity and an absence of EMG tone. Sleep efficiency was measured as the percentage of total recorded epochs staged as NREM or REM sleep.
# as §1, §2
# The effects of sleep stage (NREM vs REM) and injection (control vs. administration of either serotonin alone, GR38032F+serotonin, or GR38032F alone) on apnea indexes, respiratory pattern, BP, and HP were tested using analysis of variance (ANOVA) with repeated measures. Multiple comparisons were controlled using Fisher's protected least-significance difference (PLSD). One-way ANOVA was also performed by nonparametric (Kruskal-Wallis) analysis. Conclusions using parametric and nonparametric ANOVA were identical in all cases.
# [4] = percent recording time, 6 hours, 5-HT 0.79 mg/kg, GR38032F 0.1 mg/kg, mean ± SE
compound,measurement,setting,value
CCN1CC(CCN2CCOCC2)C(c2ccccc2)(c2ccccc2)C1=O (centres unmarked) [doxapram],effect in patients with sleep apnea,sleep apnea syndrome,decrease the length of apneas but did not alter the average arterial oxygen saturation
Nc1ncnc2c1ncn2[C@@H]1O[C@H](CO)[C@@H](O)[C@H]1O [adenosine],reduction of apnea,[1],somewhat effective in reducing apnea
Fc1ccc([C@@H]2CCNC[C@H]2COc2ccc3c(c2)OCO3)cc1 [paroxetine],effect in patients with sleep apnea,sleep apnea syndrome,benefit some but not all patients with sleep apnea syndrome
medroxyprogesterone,effect in patients with sleep apnea,sleep apnea syndrome,no consistent benefit in OSAS
CNCCC(Oc1ccc(C(F)(F)F)cc1)c1ccccc1 (centres unmarked) [fluoxetine],effect in patients with sleep apnea,sleep apnea syndrome,benefit some but not all patients with sleep apnea syndrome
C=CCN1CC[C@]23c4c5ccc(O)c4O[C@H]2C(=O)CC[C@@]3(O)[C@H]1C5 [naloxone],effect in patients with sleep apnea,sleep apnea syndrome,only slightly helpful
CC(=O)Nc1nnc(S(N)(=O)=O)s1 [acetazolamide],effect in patients with sleep apnea,sleep apnea syndrome,variable improvement in individuals with primary central apneas but caused an increase in obstructive apneas
O=C1CC2(CCCC2)CC(=O)N1CCCCN1CCN(c2ncccn2)CC1 [buspirone],patients with sleep apnea syndrome with reduced apnea index,sleep apnea syndrome; Mendelson et al. 1991,4 of 5
same,effect in patients with sleep apnea,sleep apnea syndrome,eliminate post-surgical apneustic breathing in one child
O=C(c1ccc(F)cc1)C1CCN(CCn2c(=O)[nH]c3ccccc3c2=O)CC1 [ketanserine],antagonism of agonist-induced transient apnea,[2],significantly antagonized
Cn1c(=O)c2[nH]cnc2n(C)c1=O [theophylline],effect in patients with sleep apnea,sleep apnea syndrome,may benefit patients with central apnea but appears to be of no use in adult patients with obstructive apnea
Cc1[nH]c2ccc(O)cc2c1CCN [2-methyl-5-hydroxytryptamine],apnea after intravenous administration,[2],produced transient apnea
"NCCc1c[nH]c2ccc(O)cc12 [serotonin, 5-hydroxytryptamine]","effect on RR, VE, mean BP, HP, or PS apnea index","RR, VE, mean BP, HP; i.p., serotonin 0.79 mg/kg, GR38032F 0.1 mg/kg, data not shown","had no effect on sleep, cardiovascular variables, RR, or VE"
same,beat-to-beat heart rate and BP variability (coefficients of variation),"RR, VE, mean BP, HP; serotonin 0.79 mg/kg i.p.",unaffected
same,changes in heart rate or mean BP,"RR, VE, mean BP, HP; serotonin 0.79 mg/kg i.p., 6 hour recording period",did not elicit changes in either heart rate or mean BP
same,apnea after intravenous administration,[2],produced transient apnea
same,spontaneous apnea index during NREM sleep,"[3]; i.p., serotonin 0.79 mg/kg, GR38032F 0.1 mg/kg",not affected by any drug treatment
same,increase of spontaneous apnea expression during REM sleep compared to control,[3]; serotonin 0.79 mg/kg i.p.,> 250%
same,effect on sleep architecture,sleep/wake architecture; 6 hours of polygraphic recording,had no effect on sleep architecture
same,% NREM,sleep/wake architecture; [4],59.9 ± 3.3%
same,% REM,sleep/wake architecture; [4],6.5 ± 1.1%
same,% Wakefulness,sleep/wake architecture; [4],30.2 ± 3.2%
CC[C@@H](CO)NC(=O)[C@@H]1C=C2c3cccc4c3c(cn4C)C[C@H]2N(C)C1 [methysergide],antagonism of agonist-induced transient apnea,[2],significantly antagonized
CC(N)Cc1c[nH]c2ccc(O)cc12 (centres unmarked) [a-methyl-5-hydroxytryptamine],apnea after intravenous administration,[2],produced transient apnea
CNCCCC1c2ccccc2C=Cc2ccccc21 [Protriptyline],effect in patients with sleep apnea,sleep apnea syndrome,variable results and frequent and significant side effects
N[C@@H](Cc1c[nH]c2ccccc12)C(=O)O [L-tryptophan],effect in patients with sleep apnea,sleep apnea syndrome,may have a beneficial effect on sleep apnea syndrome
